Consider eight molecules from patent publication US20020129385A1, “MEDTHODS FOR IMPROVING LONG-TERM MEMORY STORAGE AND RETRIEVAL” (priority 1998, published 2002).

For one test, the system named is NMDA receptors. The test is described as follows: NMDA-mediated synaptic potentials in hippocampal slices (DNQX, reduced Mg2+). The test is classed as cell-based, mouse. The conditions noted are these: 50 (M DL-AP5); 10 (M DNQX, Mg2+ 50 μM). How it is done: (§1) Transverse hippocampal slices were prepared as previously described (Abel et al., 1997). Mice of either sex, aged 7-18 weeks were used. Where appropriate, the experimenter was blind to animal genotype. […] For extracellular recordings, ACSF-filled glass electrodes (1-3 MW) were positioned in the stratum radiatum of area CA1. A bipolar nichrome stimulating electrode was also placed in stratum radiatum for stimulation of Schaffer collateral afferents (0.05 ms duration). Unless otherwise mentioned, test stimuli were applied at a frequency of 1 per minute (0.017 Hz), and at a stimulus intensity that elicits a fEPSP slope that was 35% of the maximum. Experiments in which changes in the fiber volley occurred, were discarded. Drugs were applied through the perfusion medium. DL-AP5, calyculin A, KT5720 and R(+)-6-Bromo-7,8-dihydroxy-3-allyl-1-phenyl-2,3,5-tetrahydro-1H-3-benzazepine (6-Br-APB) were purchased from Research Biochemicals International, Natick, Mass.

Test [1] has as its system SC-CA1 synapse. Nature of the test: Chemically-induced slow-onset potentiation (L-LTP), fEPSP recording in hippocampal slices. Details: dose or concentration left out as unconfirmed. The test is classed as cell-based, mouse. The method, then: as §1
Test [2] relates to calcineurin. The test is described as follows: Phosphatase assay in hippocampal extracts of CN98 mice. The test is classed as biochemical, mouse. Particulars: CN98 mutant and wild-type hippocampal extracts. The method, then: Phosphatase assays were performed according to Hubbard and Klee (1991). Briefly, mice were injected with 5 ml/kg of pentobarbital and decapitated. Hippocampi were homogenized in 2 mM EDTA (pH 8), 250 mM sucrose, 0.1% β-mercaptoethanol and centrifuged. Supernatants were diluted in 40 mM Tris-HCl (pH 8), 0.1 M NaCl, 0.4 mg/ml bovine serum albumin, 1 mM DTT, […] okadaic acid (Buffer 1) and incubated at 30° C. for 1 min in Buffer 1 containing […] of the peptide [γ^32p]-RII subunit of cyclic AMP-dependent protein kinase (PKA) and either 0.1 mM calmodulin (SIGMA®) and 0.66 mM Ca^2( or 0.33 mM EGTA (pH 7.5). The peptide [Ala^97]-RII (Peninsula Labs) was labeled with 0.3 mM [γ^32p] ATP (NEN®) using […] catalytic subunit of PKA (FLUKA®). The reaction was stopped with 5% TCA in 0.1 M KH2PO4 and the enzyme activity was calculated as previously described (Klee et al., 1983) and is expressed in nmol Pi released/min/mg protein. The protein concentration was determined using the bicinchroninic acid protein assay kit (SIGMA®). All samples were performed in triplicate.

The subject of test [3] is calcineurin. Nature of the test: Phosphatase assay in hippocampal extracts of Tet-CN279 and Tet-CN273 mice. The test is classed as biochemical, mouse. How it is done:
Phosphatase assays were performed as described in Winder et al., 1998. Briefly, mice were injected with 5 ml/kg of pentobarbital and decapitated. Hippocampi were dissected out, homogenized in 2 mM EDTA (pH 8), 250 mM sucrose, 0.1% β-mercaptoethanol. Supernatants were incubated at 30° C. for 1 min in presence of the […] [[…]]-RII peptide and either 0.1 mM calmodulin and 0.66 mM Ca^2+ or 0.33 mM EGTA. The reaction was stopped and the enzyme activity calculated previously as described (Klee et al., 1983; 1987). The activity was expressed in nmol Pi released/min/mg protein. The protein concentration was determined using the bicinchroninic acid protein assay kit (SIGMA®). All samples were performed in triplicate.

Test [4] relates to calcineurin. Nature of the test: Phosphatase assay in hippocampal extracts of rTet-CN279 mice. Type of test: biochemical, mouse. Particulars: extracts from control and mutant mice not treated or treated with doxycycline. The method, then: Phosphatase assays were performed as described in Winder et al., 1998. Briefly, hippocampal extracts from rTet-CN279 adult mice were prepared in 2 mM EDTA (pH 8), 250 mM sucrose, 0.1% b-mercaptoethanol. Supernatants were incubated at 30° C. for 1 min in the presence of […] [[…]]-RII peptide and either 0.1 mM calmodulin and 0.66 mM Ca^2( or 0.33 mM EGTA. The enzyme activity was expressed in nmol Pi released/min/mg protein.

The test system of test [5] is SC-CA1 synapse. The test is described as follows: LTP induced by two 100 Hz trains in hippocampal slices in the presence of drugs. Details: Sensitivity of LTP elicited by two trains to preincubation with the drug: dose or concentration left out as unconfirmed. The test is classed as cell-based, mouse. The method, then:
as §1

The subject of test [6] is SC-CA1 synapse. Nature of the test: LTP induced by four 100 Hz trains in hippocampal slices in the presence of drugs. Type of test: cell-based, mouse. Particulars: wild-type slices; KT5720, 20 minute pretreatment; anisomycin 30 μM one hour. The method, then:
as §1

In test [7] the test system is protein synthesis in area CA1. Particulars: 30 μM; Stanton and Sarvey, 1984; Osten et al., 1996; cited from earlier work.
Test [8] deals with SC-CA1 synapse. Nature of the test: LTP induced by two trains in slices of Tet-CN279 mice on or off doxycycline (tTA system). Type of test: cell-based, mouse. The method, then: as §1
The transgenic mice CN279 and CN273 were generated by microinjection of the linear construct as previously described (Hogan et al., 1994; Winder et al., 1998). Analysis of founder mice for integration of the transgene was performed by Southern blotting and PCR. The founder mice were backcrossed to C57BL6 F1/J mice to generate the transgenic lines CN279 and CN273. […]

The subject of test [9] is Schaffer collateral CA1 pathway. Nature of the test: LTP induced by two 100 Hz trains (I-LTP) in slices of rTet-CN279 mice treated with doxycycline (rtTA system). The conditions noted are these: ACSF 6 ng doxycycline/ml. Type of test: cell-based, mouse. How it is done: Recordings were performed as described in Winder et al., (1998). […] Test stimuli were applied at a frequency of 1 per min at an intensity that elicits an EPSP with a slope of […] of maximum. Slices from mice treated with doxycycline were incubated in ACSF containing doxycycline (6 ng/ml) for 2-3 hours before the tetanus was applied and subfused with doxycycline solution throughout the recordings.

As for `NC(CCCP(=O)(O)O)C(=O)O` (racemic) [DL-AP5], the “NMDA-mediated field potentials in the presence of the drug” value in the test on NMDA receptors is on record as “abolished”.

`C=CCN1CCc2c(cc(O)c(O)c2Br)[C@@H](c2ccccc2)C1` [6-Br-APB, R(+)-6-Bromo-7,8-dihydroxy-3-allyl-1-phenyl-2,3,5-tetrahydro-1H-3-benzazepine]: the “fEPSP slope, % of baseline at 3 hr after drug application” value with SC-CA1 synapse [1] (CN98 mutant slices) is on record as 181±41 % of baseline; in the test with SC-CA1 synapse [1] (wild-type slices) it was 204±40 % of baseline.

On to `O=C(O)CN(CCOCCOCCN(CC(=O)O)CC(=O)O)CC(=O)O` [EGTA], for which the “Phosphatase activity in the presence of the calcium chelator” value in the test on calcineurin [2] is “virtually abolished”. Also, the Phosphatase activity with calcineurin [3] (mutant (Tet-CN279+Tet-CN273)+EGTA) came out at 0.287±0.17 nmol Pi/min/mg; in the test with calcineurin [3] (wild-type (Tet-CN279+Tet-CN273)+EGTA), 0.432±0.11 nmol Pi/min/mg. Moreover, in the test with calcineurin [4], the “Phosphatase activity in the presence of the Ca2+ chelator” value is “blocked”.

For the molecule `CCCCCCOC(=O)[C@]1(O)C[C@@H]2O[C@@]1(C)n1c3ccccc3c3c4c(c5c6ccccc6n2c5c31)C(=O)NC4` [KT5720], the “LTP elicited by two trains, % of baseline at 1 hr” value in the test with SC-CA1 synapse [5] (wild-type slices, KT5720, no drug 206±23%) was 153±5 % of baseline. The “Decay of LTP induced by four 100 Hz trains, compared with anisomycin” value in the test on SC-CA1 synapse [6] is “much more rapid decay of LTP”.

As for `Nc1ncnc2c1ncn2[C@@H]1O[C@@H]2COP(O)(=S)O[C@H]2[C@H]1O` (stereo partly drawn) [Sp-cAMPS], the “fEPSP slope, % of baseline at 3 hr after drug application” value in the test on SC-CA1 synapse [1] (CN98 mutant slices) is given as 122±17 % of baseline; in the test with SC-CA1 synapse [1] (wild-type slices), 124±13 % of baseline.

In the case of `COc1ccc(C[C@H]2NC[C@H](O)[C@H]2OC(C)=O)cc1` [anisomycin], the “Sensitivity of LTP elicited by two trains to preincubation with the drug” value in the test on SC-CA1 synapse [5] (wild-type slices, anisomycin (FIG. 4C)) was “completely insensitive”. For the same molecule, in test [7], the “Effect on protein synthesis in area CA1” value is reported as “completely block protein synthesis”.

With `COC[C@@H]([C@H](O)[C@H](O)C(=O)NCC[C@H](C)c1nc(/C=C/C[C@@H]2O[C@]3(C[C@@H](O)[C@@H]2C)O[C@H]([C@H](C[C@H](O)[C@H](C)[C@H](O)[C@H](C)/C=C(C)/C(C)=C/C=C/C(C)=C\C#N)OC)[C@H](OP(=O)(O)O)C3(C)C)co1)N(C)C` [calyculin A], the “LTP induced with two 100 Hz trains after drug pretreatment, mutant versus wild-type” value with SC-CA1 synapse [5] (Tet-CN279 mutant slices, 750 nM, 30 minutes pretreatment) is recorded as “indistinguishable from that seen in wild-type”.

As for `C[C@H]1c2cccc(O)c2C(=O)C2=C(O)[C@]3(O)C(=O)C(C(N)=O)=C(O)[C@@H](N(C)C)[C@@H]3[C@@H](O)[C@@H]21` [doxycycline], the “LTP induced by two trains, % of baseline at 1 hr” value in the test with SC-CA1 synapse [8] (Tet-CN279 Wt on doxycycline (1 mg/ml water, 1 ng/ml ACSF)) is 191±18 % of baseline; with SC-CA1 synapse [8] (Tet-CN279 mutant on doxycycline (1 mg/ml water, 1 ng/ml ACSF)) it was 184±18 % of baseline. In addition, the “LTP induced by two 100 Hz trains (I-LTP), % of baseline at 1 hour” value is 195±9 % of baseline in test [9] (rTet-CN279 Control dox) and 141±8 % of baseline in test [9] (rTet-CN279 Mutant dox).
